Test: Half-tongue test: recognition threshold for velvety mouthcoating, trained sensory panel
Assay type: in vivo
Conditions: Homo sapiens, pH 4.5, read-out: Mouthfeel threshold
Procedure: The threshold at which the compound delivered a noticeable velvety mouthcoating was evaluated as follows:
The isolated compound was suspended in water, and, after removing the volatiles in high vacuum (<5 mPa), was freeze-dried twice.
The freeze-dried sample was taken up in water, adjusted to pH 4.5 using hydrochloric acid, and stepwise diluted (1+1) with water. This is referred to herein as "sample 1". A second sample was prepared comprising water (Evian®) adjusted to pH 4.5 using hydrochloric acid. This is referred to herein as "sample 2". Both samples were stored at room temperature.
Twelve panelists with no history of known taste disorders were trained to evaluate the taste of aqueous solutions (2 mL each) of the following standard taste compounds in bottled water (pH 4.5) by using a triangle test as described in the literature (20): sucrose (50 mmol/L) for sweet taste, lactic acid (20 mmol/L) for sour taste, NaCl (20 mmol/L) for salty taste, caffeine (1 mmol/L) for bitter taste, sodium glutamate (3 mmol/L) for umami taste. For the puckering astringency and the velvety astringent, mouth-drying oral sensation, the panel was trained by using gallustannic acid (0.05%) and quercetin-3-O-β-D-glucopyranoside (0.01 mmol/L), respectively, using the half-tongue test (see Scharbert S., Holzmann N., Hofmann T. Identification of the astringent taste compounds in black tea infusions by combining instrumental analysis and human bioresponse. J. Agric. Food Chem. 2004, 52, 3498-3508).
Samples 1 and 2 were presented in order of increasing concentrations to the panel. The panelists, wearing noseclips, were asked to determine the dilution at which a difference was detectable between the samples using the "half-tongue" test. The test was performed three times. When the panelist selected correctly, the same concentration was presented again besides one blank as a proof for the correctness of the data. The geometric mean of the last and the second last concentration was calculated and taken as the individual recognition threshold. The values between individuals and between five separate sessions differed by not more than plus or minus one dilution step.
For comparison with the mouthfeel-enhancing threshold of known ingredients in vanilla extract, the half-tongue test was repeated using vanillic acid, p-hydroxybenzoic acid, guaiacol, p-hydroxybenzaldehyde and vanillin respectively instead of sample 1.

| SMILES | minimal effective concentration [µM] |
| --- | --- |
| O=Cc1ccc(O)cc1 [p-hydroxybenzaldehyde] | 205 |

Same assay, conditions: Homo sapiens; half-tongue test, in water pH 4.5, twelve trained panelists wearing noseclips; geometric mean of last and second last concentration; read-out: Mouthfeel threshold

| SMILES | minimal effective concentration [µM] |
| --- | --- |
| COc1ccccc1O [Guaiacol] | 240 |
| COc1cc(-c2cc(OC)c(O)c(-c3ccc(O)c(OC)c3)c2)ccc1O [Sample 1, triguaiacol] | 0.01 |
| COc1cc(C(=O)O)ccc1O [Vanillic acid] | 320 |
| COc1cc(C=O)ccc1O [Vanillin] | 150 |
| O=C(O)c1ccc(O)cc1 [p-hydroxybenzoic acid] | 250 |
